From patent publication US7737126B2, “Purine derivative” (Glaxo Group Limited, priority 2004, dated 2010)

Assays:
[1] = tested on: plasma protein; test: Literature % plasma protein binding of calibration compounds; details: linear conversion of literature % PPB
Experimental: Calibration of the protein columns: The column performance check and the calibration have been performed before the analysis of every 96 well plate. The compounds used for the column calibrations were dissolved separately in 0.5 mg/ml concentration in 50% 2-propanol and 50% pH 7.4 ammonium acetate solution mixtures.
The literature % PPB (bound in plasma) values were converted to the linear free energy related logk values (logarithm of apparent affinity constant) using the following equation.

[2] = biological target: T1, HSA (Homo sapiens, UniProt P02768); test: HSA binding by immobilised HSA HPLC column; type: in vitro ADME; details: for logK measured / % HSA measured: HSA column, typical data; for logK measured: derived from the calibration curve
T1 construct: purchased Chromtech (Cheshire, UK)
T1 sequence (P02768 25-609): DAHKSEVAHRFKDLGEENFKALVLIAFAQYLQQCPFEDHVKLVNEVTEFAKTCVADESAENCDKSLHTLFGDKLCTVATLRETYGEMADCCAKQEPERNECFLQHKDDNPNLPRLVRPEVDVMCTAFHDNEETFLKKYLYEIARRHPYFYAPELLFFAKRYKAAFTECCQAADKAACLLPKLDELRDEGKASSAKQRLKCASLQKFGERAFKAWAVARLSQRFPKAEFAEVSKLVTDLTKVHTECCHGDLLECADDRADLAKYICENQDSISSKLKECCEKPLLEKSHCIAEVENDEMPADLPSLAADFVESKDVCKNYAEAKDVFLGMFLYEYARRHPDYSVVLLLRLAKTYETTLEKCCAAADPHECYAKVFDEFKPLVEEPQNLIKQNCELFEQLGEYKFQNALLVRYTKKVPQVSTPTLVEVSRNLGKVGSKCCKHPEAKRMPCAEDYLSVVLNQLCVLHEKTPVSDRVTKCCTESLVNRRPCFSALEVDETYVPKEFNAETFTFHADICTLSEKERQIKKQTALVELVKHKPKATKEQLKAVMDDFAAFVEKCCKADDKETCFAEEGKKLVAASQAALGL
Experimental: Instrument: Agilent HP1100 HPLC instruments were used throughout.
HPLC columns: Chromtech Immobilised HSA HPLC column 50×3 mm was purchased from Chromtech (Cheshire, UK).
Mobile phase and detection: The mobile phase A was 50 mM pH 7.4 ammonium acetate solution, while mobile phase B was 2-Propanol (HPLC grade, Runcorn, UK). The mobile phase flow rate was 1.8 ml/min. The column temperature was kept at 30° C. The gradient profile and run time were the same with each column, the linear gradient from 0 to 30% 2-propanol was applied from 0 to 3 minutes. From 3 to 10 minutes, the mobile phase composition was constant 30% 2-propanol and 70% 50-mM ammonium acetate. […] Each separation was stopped after 15 minutes.
Detection: Chromatograms were recorded at 230 and 254 nm by a diode array UV absorption detector at room temperature.

[3] = Cardiovascular model (therapeutic index); type: in vivo, rat; details: anaesthetised male Wistar rats, administered into the trachea
Experimental: 3) Therapeutic Index (TI) Cardiovascular Model: Male Wistar rats were anaesthetised with chloralose/pentobarbitone and the jugular vein, left carotid artery and trachea were cannulated. The arterial cannula was connected to a transducer for the continuous measurement of blood pressure and heart rate. Compound (or vehicle) was administered into the trachea in a 100 ul volume, and the dose of test compound giving a 20% increase in blood pressure and heart rate (ED20) was determined. The TI for a test compound is calculated as the ratio of the ED20 in the cardiovascular model compared with the ED50 in the LPS model.

[4] = biological target: T2, human adenosine A2B receptor (Homo sapiens, UniProt P29275); test: Agonist activity against adenosine A2B receptor (CHO or yeast assay); type: cell-based; details: A2A over A2B
T2 construct: expressed in transfected cells; host or cells: CHO cells or yeast cells
T2 sequence (P29275 1-332): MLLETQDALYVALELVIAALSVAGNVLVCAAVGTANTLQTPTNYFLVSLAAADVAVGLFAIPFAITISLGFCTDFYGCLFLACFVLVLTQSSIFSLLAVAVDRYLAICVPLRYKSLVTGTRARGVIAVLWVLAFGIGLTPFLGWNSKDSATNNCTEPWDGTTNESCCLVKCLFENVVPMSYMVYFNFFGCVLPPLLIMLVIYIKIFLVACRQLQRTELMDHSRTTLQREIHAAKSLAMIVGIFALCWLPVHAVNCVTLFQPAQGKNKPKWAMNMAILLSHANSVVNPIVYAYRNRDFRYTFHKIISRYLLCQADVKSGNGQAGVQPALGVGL
Experimental: (§1) 1) In Vitro: Agonist Activity Against Adenosine A1, A2A, A2B and A3 Receptors.
(§2) The agonist potency and selectivity of compounds against human adenosine receptors is determined using Chinese hamster ovary (CHO) cells or yeast cells transfected with the gene for the relevant receptor.
(§3) Two methods may be used in the CHO cells. (i) For the SPAP assay, cells are also transfected with cyclic AMP (cAMP) response elements promoting the gene for secreted placental alkaline phosphatase (SPAP). Changes in cAMP are measured as changes in the levels of SPAP. (ii) The DiscoveRx assay is an enzyme complementation assay that involves two fragments of β-galactosidase, enzyme acceptor (EA) and enzyme donor (ED). […] For both methods the effect of test compounds is determined by their effects on basal levels of cAMP (A2A and A2B) or on forskolin enhanced cAMP (A1 and A3).
(§4) For the yeast assay, receptor stimulation causes activation of a reporter gene, namely FUS1-HIS3, resulting in histidine production which is essential for cell growth. […] This response is measured from the production of the exoglucanase, an enzyme secreted constitutively by yeast cells.
(§5) In all of the in vitro assays the activity of test compounds is expressed as a ratio to that of the non-selective adenosine receptor agonist, N-ethyl carboxamide adenosine (NECA).

[5] = biological target: T3, human adenosine A1 receptor (Homo sapiens, UniProt P30542); test: Agonist activity against adenosine A1 receptor (CHO or yeast assay); type: cell-based; details: A2A over A1
T3 construct: expressed in transfected cells; host or cells: CHO cells or yeast cells
T3 sequence (P30542 1-326): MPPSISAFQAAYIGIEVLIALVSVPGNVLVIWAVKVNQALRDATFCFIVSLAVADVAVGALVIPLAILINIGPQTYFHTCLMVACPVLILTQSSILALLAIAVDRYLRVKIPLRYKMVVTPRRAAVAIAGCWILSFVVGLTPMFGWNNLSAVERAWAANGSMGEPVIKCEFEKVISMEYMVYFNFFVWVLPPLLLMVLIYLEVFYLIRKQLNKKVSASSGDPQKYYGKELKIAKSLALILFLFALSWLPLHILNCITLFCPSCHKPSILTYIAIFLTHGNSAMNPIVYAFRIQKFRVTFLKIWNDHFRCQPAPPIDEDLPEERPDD
Experimental: as §1, §2, §3, §4, §5

[6] = tested on: neutrophil accumulation; test: In vivo anti-inflammatory LPS model; set-up: species or system rat; details: male CD albino rats, intratracheal, dose of 30 μg/kg or less, lung lavage 4 h after LPS challenge
Experimental: In Vivo Anti-Inflammatory Agonist Activity LPS Model: Test compound was administered to male CD albino rats prior to exposure to LPS. Compound (or vehicle) was injected in a 200 ul volume into the trachea , via a cannula placed trans-orally, whilst the animals were under isoflurane anaesthesia. After a recovery period of 30 min, rats were placed in a chamber and exposed to an aerosol of E. Coli-derived LPS for 15 min. Four hours after LPS challenge the rats were killed, the lungs lavaged, and both total and differential cell counts determined.

[7] = biological target: T4, human adenosine A3 receptor (Homo sapiens, UniProt P0DMS8); test: Agonist activity against adenosine A3 receptor (CHO or yeast assay); type: cell-based; details: A2A over A3
T4 construct: expressed in transfected cells; host or cells: CHO cells or yeast cells
T4 sequence (P0DMS8 1-318): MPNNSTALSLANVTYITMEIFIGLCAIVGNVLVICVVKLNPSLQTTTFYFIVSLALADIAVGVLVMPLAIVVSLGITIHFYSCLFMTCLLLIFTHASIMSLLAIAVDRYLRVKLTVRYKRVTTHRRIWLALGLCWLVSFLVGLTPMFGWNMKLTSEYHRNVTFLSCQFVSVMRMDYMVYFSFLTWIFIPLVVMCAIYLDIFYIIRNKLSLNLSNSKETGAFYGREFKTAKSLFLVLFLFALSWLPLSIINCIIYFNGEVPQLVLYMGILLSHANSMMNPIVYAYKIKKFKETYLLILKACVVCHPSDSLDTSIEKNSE
Experimental: as §1, §2, §3, §4, §5

| SMILES | lit logK [1] | logK measured [2] | % HSA measured [2] [%] | also measured |
| --- | --- | --- | --- | --- |
| CN1C(C(=O)Nc2ccccn2)=C(O)c2ccccc2S1(=O)=O [Piroxicam] | 1.16 | 1.10 | 93.6 | – |
| CCCC1O[C@@H]2C[C@H]3[C@@H]4CCC5=CC(=O)C=C[C@]5(C)[C@H]4[C@@H](O)C[C@]3(C)[C@]2(C(=O)CO)O1 (stereo partly drawn) [Budesonide] | 0.83 | 0.70 | 84.2 | – |
| CNC(=C[N+](=O)[O-])NCCSCc1csc(CN(C)C)n1 [Nizatidine] | −0.28 | −0.35 | 31.1 | – |
| O=C1CN=C(c2ccccn2)c2cc(Br)ccc2N1 [Bromazepam] | 0.17 | 0.38 | 71.2 | – |
| O=C(O)Cc1ccccc1Nc1c(Cl)cccc1Cl [Diclofenac] | 1.92 | – | – | – |
| CCn1nnc([C@H]2O[C@@H](n3cnc4c(N[C@H]5CC[C@H](Nc6nc(NCCc7cn(C)cn7)nc7c6ncn7[C@@H]6O[C@H](c7nnn(CC)n7)[C@@H](O)[C@H]6O)CC5)nc(NCCc5cn(C)cn5)nc43)[C@H](O)[C@@H]2O)n1.O=CO [Formic acid—(2R,3R,4S,5R,2′R,3′R,4′S,5′R)-2,2′-{trans-1,4-cyclohexanediylbis[imino(2-{[2-(1-methyl-1H-imidazol-4-yl)ethyl]amino}-9H-purine-6,9-diyl)]}bis[5-(2-ethyl-2H-tetrazol-5-yl)tetrahydro-3,4-furandiol] (4:1)] | – | – | – | dose giving a 20% increase in blood pressure and heart rate (ED20) [3]: about 7 μg/kg; selectivity for A2A than A2B [4]: greater than 100 fold; selectivity for A2A than A1 [5]: greater than 100 fold; reduction in neutrophil accumulation [6]: greater than 50%; selectivity for A2A than A3 [7]: greater than 100 fold; binding to HSA ([2]; immobilised HSA HPLC column, pH 7.4): greater than 90% |
| NC(=O)N1c2ccccc2C=Cc2ccccc21 [Carbamazepine] | 0.46 | 0.50 | 76.8 | – |
| COC(=O)C1=C(C)NC(C)=C(C(=O)OCCN(C)Cc2ccccc2)C1c1cccc([N+](=O)[O-])c1 (stereo not drawn) [Nicardipine] | – | 1.38 | 97.0 | – |
